Converted amounts (≈) assume the structure as drawn.
Settings: buffer; pH 7.4; 6.0 h; 150.0 µM

| SMILES | solubility kinetic |
| --- | --- |
| C[S+](=O)([O-])c1ccc(-c2nc(C(=O)N3CCOCC3)n3ccncc23)cc1 | > 57 µg/mL |
| Cc1noc(C)c1-c1cc2c(cc(C)n2C)c(-c2cnn(C)c2)n1 | 15.2 µg/mL (≈ 47.2 µM) |
| O=C(O)CCNc1cc(N2CCc3ccccc3CC2)nc(-c2cccnc2)n1 | > 58 µg/mL |
| CS(=O)(=O)c1ccc(-c2nnc(/C=C/c3nnc(-c4ccc(C#N)cc4)o3)n2-c2ccccc2Cl)nc1 | 4.17 µg/mL (≈ 7.86 µM) |
| Cn1nnnc1SCCCNCc1cccc(OCc2ccccc2Cl)c1 | > 60 µg/mL |
| O=C(NCCc1nc2ccccc2n1CCO)C1CCCCC1 | > 47 µg/mL |
| CCOc1cc(F)c(CCNC(=O)c2cc3sccc3n2Cc2ccccc2)cc1OCC | < 1 µg/mL |

Continued, values first:

| solubility kinetic | SMILES |
| --- | --- |
| < 1 µg/mL | N#Cc1ccc(NS(=O)(=O)c2ccc(NC(=O)Cc3ccc(Cl)c(Cl)c3)cc2)cc1 |
| < 1 µg/mL | COC(=O)c1ccc(NC(=O)c2nc3ccccc3n(C)c2=O)cc1 |
| < 1 µg/mL | Cc1c(NC2=C(Cl)C(=O)N(c3ccccc3)C2=O)c(=O)n(-c2ccccc2)n1C |
| > 63 µg/mL | CCOC(=O)c1ccc(NC(=O)N2Cc3[nH]cnc3C[C@H]2c2nc(C(C)C)no2)cc1 |

— PubChem BioAssay AID1645848
